Measured values as given in the OligoGym collection.
“And” between values parts separate entries of the source, which are not always exact repeats. Equal entries are not always repeated. After the bases stand the sugars from the 5' end (letter, count) and the backbone: PS all phosphorothioate, else s phosphorothioate and o phosphodiester by linkage. Methylation of C is not given here. e = 2'-O-(2-methoxyethyl) (MOE); k = constrained ethyl (cEt); d = 2'-deoxy (DNA); m = 2'-O-methyl

Target: HSD17B13
Conditions: ASO, HepaRG

Sequence | target mRNA inhibition (1 µM) | other results
CACGATTGTTACATCA (sugars k3 d10 k3, PS) | 37% | 
TTGAGATAAAGCTGCC (sugars kkdddddddddkekek, PS) | 2% | 
TGTAAGCTGAGAGTTC (sugars k3 d10 k3, PS) | 45% | 
CTGCGCACATATTTTA (sugars k3 d10 k3, PS) | 92% | target mRNA inhibition (0.02 µM): 0%; target mRNA inhibition (0.078 µM): 0%; target mRNA inhibition (0.313 µM): 7%; target mRNA inhibition (1.25 µM): 52%; target mRNA inhibition (5 µM): 74%
AAAAATTGGTTTCGAA (sugars k3 d10 k3, PS) | 13% | 
CTTTTTATAGACTGGG (sugars kkdddddddddkekek, PS) | 37% | 
TGTCCAGAAGTATGTG (sugars k3 d10 k3, PS) | 0% | 
TGAACAGTCTTAAACC (sugars k3 d1 m1 d8 k3, PS) | 57% | 
ACTCTAAATACCCTTG (sugars k3 d10 k3, PS) | 16% | 
TATACTAGGATTAGAA (sugars k3 d10 k3, PS) | 2% | 
CACTGCCAGATTGCAC (sugars k3 d10 k3, PS) | 38% | 
AAGGACTTTCATAGGG (sugars k3 d10 k3, PS) | 71% | 
GCCTAAACAAACACTA (sugars k3 d10 k3, PS) | 37% | 
TCTTGACAATGGTTGA (sugars kkdddddddddkekek, PS) | 40% | 
TGTCTAAACATCTCTG (sugars k3 d9 k3 e1, PS) | 69% | 
TGTCAGAGACTCTGTG (sugars k3 d10 k3, PS) | 39% | 
AGAGGCTAGGGAAATC (sugars kkdddddddddkekek, PS) | 59% | 
CCAATATAATCCAAAG (sugars k3 d10 k3, PS) | 28% | 
GTAGATGATGGTGATC (sugars k3 d10 k3, PS) | 36% | 
CTGCTAGTGCCAAACC (sugars k3 d9 k3 e1, PS) | 67% | 
CAAAAGTGTCCTCGAT (sugars k3 d10 k3, PS) | 5% | 
CAGAUTGGAATGCTAC (sugars k3 d1 m1 d8 k3, PS) | 70% | target mRNA inhibition (0.02 µM): 7%; target mRNA inhibition (0.078 µM): 25%; target mRNA inhibition (0.313 µM): 42%; target mRNA inhibition (1.25 µM): 56%; target mRNA inhibition (5 µM): 82%
CACATATGTGAAGAGC (sugars k3 d10 k3, PS) | 71% | 
TGAGGTAAGGAATCCC (sugars k3 d10 k3, PS) | 2% | 

Sequence | target mRNA inhibition (1 µM) | other results
GAATAGCAAGCCAACA (sugars kkdddddddddkekek, PS) | 27% | 
CGCTACTGTAGGCTAA (sugars k3 d10 k3, PS) | 68% | 
CCAACTATGTAATAGG (sugars k3 d10 k3, PS) | 68% | 
TGTTTATGTAAGCACA (sugars k3 d10 k3, PS) | 74% | 
TTGAGAGAACTTATAC (sugars k3 d10 k3, PS) | 21% | 
TGTCCACCTTTAAATG (sugars kkdddddddddkekek, PS) | 27% | 
GAAGTATGTGAACTCC (sugars k3 d10 k3, PS) | 56% | 
TATTCCCAACGCAACA (sugars k3 d10 k3, PS) | 62% | 
ATTCGAATTTCTTCAA (sugars k3 d10 k3, PS) | 65% | 
CTATTATGCACTCTAT (sugars k3 d10 k3, PS) | 32% | 
TTAAAGACAGGGTGGT (sugars k3 d10 k3, PS) | 21% | 
ATCTCTGGGACCAAGG (sugars k3 d10 k3, PS) | 72% | target mRNA inhibition (0.02 µM): 0%; target mRNA inhibition (0.078 µM): 0%; target mRNA inhibition (0.313 µM): 57%; target mRNA inhibition (1.25 µM): 78%; target mRNA inhibition (5 µM): 93%
GGTAAGCCCCATGCCA (sugars k3 d10 k3, PS) | 38% | 
ACCACGATTGTTACAT (sugars k3 d10 k3, PS) | 34% | 
TTGGTGGACTTCAGAG (sugars k3 d10 k3, PS) | 8% | 
AGTAACTTTATTAACG (sugars k3 d10 k3, PS) | 12% | 
CGTTTGACTGCTGCTA (sugars k3 d9 k3 e1, PS) | 75% and 50% | target mRNA inhibition (0.02 µM): 4%; target mRNA inhibition (0.078 µM): 17%; target mRNA inhibition (0.313 µM): 34%; target mRNA inhibition (1.25 µM): 57%; target mRNA inhibition (5 µM): 66%
TTTTAAGAGGCATGAA (sugars k3 d10 k3, PS) | 53% | 
ACTTGATCTCTTAGCT (sugars k3 d9 k3 e1, PS) | 59% | 
ATGATAATTTGGTGTC (sugars k3 d10 k3, PS) | 55% | 
TTCTGTGGCATGGCTA (sugars k3 d1 m1 d8 k3, PS) | 65% | 
ATCAGACTTCTTACGA (sugars k3 d10 k3, PS) | 45% | 
GCATAAGAGATGAGTA (sugars k3 d10 k3, PS) | 33% | 
ATTCTGTGGCATGGCT (sugars kkdddddddddkekek, PS) | 55% | 

Sequence | target mRNA inhibition (1 µM) | other results
TGATTCGAAACTATTC (sugars k3 d10 k3, PS) | 29% | 
ATCTCACAAGGGAAAT (sugars k3 d10 k3, PS) | 73% | 
GCAAGCCAACAGAGAG (sugars kkdddddddddkekek, PS) | 12% | 
AGAGUTGCACCGTTTT (sugars k3 d1 m1 d8 k3, PS) | 68% | 
TAATTTTCGGGTTCTT (sugars k3 d10 k3, PS) | 40% | 
AGTCTTAAACCTTCCC (sugars k3 d10 k3, PS) | 77% | target mRNA inhibition (0.02 µM): 0%; target mRNA inhibition (0.078 µM): 0%; target mRNA inhibition (0.313 µM): 21%; target mRNA inhibition (1.25 µM): 65%; target mRNA inhibition (5 µM): 85%
CTTAGTACCAAGACAC (sugars k3 d10 k3, PS) | 60% | 
GAATAGAGTTGCACCG (sugars k3 d10 k3, PS) | 55% | 
AAGAGCTGGTAAAGGT (sugars k3 d10 k3, PS) | 47% | 
AAACAAGAGGATAGTC (sugars kkdddddddddkekek, PS) | 52% | 
TTGATCTCTTAGCTGT (sugars k3 d10 k3, PS) | 74% | 
TGTTAGGACCCAGTCT (sugars k3 d10 k3, PS) | 51% | 
AACTCCGTTATAAGTT (sugars k3 d10 k3, PS) | 11% | 
ATTATGTGATTGAGTT (sugars k3 d10 k3, PS) | 46% | 
GCTGAGAAGATCGGCT (sugars k3 d10 k3, PS) | 10% | 
GAGATAAAGCTGCCTG (sugars k3 d9 k3 e1, PS) | 55% | 
TGCTAGTGCCAAACCA (sugars k3 d9 k3 e1, PS) | 73% | target mRNA inhibition (0.02 µM): 8%; target mRNA inhibition (0.078 µM): 16%; target mRNA inhibition (0.313 µM): 38%; target mRNA inhibition (1.25 µM): 54%; target mRNA inhibition (5 µM): 71%
TTTAGTATTTGGGTGT (sugars k3 d10 k3, PS) | 21% | 
TCCAAAAGTGTCCTCG (sugars k3 d10 k3, PS) | 31% | 
CCTAGGGAGGAGGTAC (sugars k3 d10 k3, PS) | 34% | 
GAAACTTGATCTCTTA (sugars k3 d9 k3 e1, PS) | 79% | target mRNA inhibition (0.02 µM): 0%; target mRNA inhibition (0.078 µM): 11%; target mRNA inhibition (0.313 µM): 60%; target mRNA inhibition (1.25 µM): 82%; target mRNA inhibition (5 µM): 90%
TATCAATGCCTTAGCC (sugars k3 d10 k3, PS) | 15% | 
GTAAGGAGTAGTGGAG (sugars k3 d10 k3, PS) | 37% | 
TTACAACCTGGTTTCA (sugars k3 d10 k3, PS) | 25% | 

Sequence | target mRNA inhibition (1 µM) | other results
TAGTGTAAGCTGAGAG (sugars kkdddddddddkekek, PS) | 68% | target mRNA inhibition (0.02 µM): 24%; target mRNA inhibition (0.078 µM): 25%; target mRNA inhibition (0.313 µM): 37%; target mRNA inhibition (1.25 µM): 51%; target mRNA inhibition (5 µM): 81%
AATAAAGCTTTGCAGC (sugars k3 d10 k3, PS) | 26% | 
ATTTAGAATACGCTGA (sugars k3 d10 k3, PS) | 19% | 
AGTATGACAACTGGAG (sugars k3 d10 k3, PS) | 15% | 
TTTAGAATACGCTGAG (sugars k3 d10 k3, PS) | 44% | 
TGACAATGGTTGCCAC (sugars k3 d9 k3 e1, PS) | 45% | 
GTCCAGAAGTATGTGA (sugars k3 d10 k3, PS) | 9% | 
ATTACATATCAATGCC (sugars k3 d10 k3, PS) | 36% | 
TAATCACAAGTAAGGT (sugars k3 d10 k3, PS) | 54% | 
ACTGCTGCTAGTGCCA (sugars k3 d9 k3 e1, PS) | 57% | 
AAAGACTTTGAGACTC (sugars k3 d10 k3, PS) | 68% | target mRNA inhibition (0.02 µM): 0%; target mRNA inhibition (0.078 µM): 18%; target mRNA inhibition (0.313 µM): 40%; target mRNA inhibition (1.25 µM): 65%; target mRNA inhibition (5 µM): 87%
ATTGCAGTTATTAGAA (sugars k3 d10 k3, PS) | 42% | 
AGACAATTAACATTCG (sugars k3 d10 k3, PS) | 62% | 
GCATTGAAAAGATGTA (sugars k3 d10 k3, PS) | 0% | 
GCACCGTTTTGGGCTA (sugars k3 d1 m1 d8 k3, PS) | 67% | 
GACATGAGGTTTTGAT (sugars kkdddddddddkekek, PS) | 55% | 
TATTGGTAAGTATTCC (sugars kkdddddddddkekek, PS) | 36% | 
CATAATAATAGCTCTA (sugars k3 d10 k3, PS) | 41% | 
TGTGGCATGGCTACAG (sugars k3 d10 k3, PS) | 24% | 
CCAGGTTGAGATAAAG (sugars k3 d1 m1 d8 k3, PS) | 49% | 
GTAATATTCATAGTTC (sugars k3 d10 k3, PS) | 49% | 
TCCCAAGGCCTGAAGT (sugars k3 d10 k3, PS) | 43% | 
